{"source": "paper PMC7870753", "about": "“Population pharmacokinetics of ATR inhibitor berzosertib in phase I studies for different cancer types” (Cancer Chemotherapy and Pharmacology, 2020)", "key": {"CYP3A4": {"system": "CYP3A4", "details": "based on in vitro data; cited from earlier work"}, "[1]": {"system": "acute myeloid leukemia cells", "set-up": "method as in PMID 29789314", "details": "in combination with gemcitabine; cited from earlier work"}, "[2]": {"assay": "Population PK analysis (non-linear mixed-effect, two-compartment linear model) of berzosertib plasma concentrations, Studies 001 and 002", "type": "in vivo", "details": "for cov (Q, V2) / cov (V1, Q) / cov (V1, V2): covariance; for clearance: human, plasma, read-out: Clearance CL (converted)", "description": "Longitudinal berzosertib plasma concentration and dosing data from the two phase I clinical trials, described above, were available for the analysis. The studies were performed in accordance with the Declaration of Helsinki; all participants provided written informed consent before blood samples were collected.\nStudy 001 (Online Resource Figure S1) was a phase I, open-label, first-in-human multiple ascending dose study to investigate the safety, tolerability, and PK of berzosertib alone and in combination with cytotoxic chemotherapy in patients with advanced solid tumors. The RP2D or maximum tolerated dose was determined in dose escalation parts A and B with further evaluation of safety and efficacy in expansion cohorts (parts C1–3). PK data were available from 170 patients who received twice-weekly 1-h intravenous infusions of berzosertib (18–210 mg/m^2) during a 7–14-day monotherapy lead-in. This preceded combination with chemotherapies, administered on day 1, and berzosertib administered on days 2 and 9 every 21 days following (1) gemcitabine, or cisplatin and gemcitabine (54 patients, Part A); (2) cisplatin (29 patients, Part B); (3) gemcitabine in patients with non-small cell lung cancer (NSCLC; 36 patients, Part C1); (4) cisplatin in patients with triple-negative breast cancer (TNBC) basaloid subtype and BRCA wild type (37 patients, Part C2); cisplatin or carboplatin in patients with platinum-resistant small cell lung cancer (SCLC; 14 patients, Part C3). Berzosertib was also evaluated in combination with irinotecan in a subsequent study cohort (Part B2). In Study 001, Parts A and B, rich PK sampling (pre-dose, 0.5, 1 h (end of infusion), 1.5, 2, 4, 8, 24, 48, and 72 h after the start of infusion) was performed for most patients following berzosertib monotherapy in the lead-in. Similar rich PK sampling was conducted on cycle 1 days 2 through 5 after the first dose of berzosertib in combination with other agents in study parts A and B or during dose escalation. Additional sparse samples (pre-dose and 2 h after the end of infusion) were taken during cycle 1, day 9 and cycle 2, day 2. In the expansion cohorts Parts C1, C2, and C3, limited PK sampling was performed on cycle 1 day 2: pre-dose, 0.5, 1 h (end of infusion), 1.5, 2, 4, and (optionally) 8 h after the start of infusion. Similar sampling was performed on cycle 1, day 9 on a portion of the participants before being removed by amendment.\nStudy 002 (Online Resource Figure S1) was a phase I, open-label, multiple ascending dose study to investigate the safety, tolerability, and PK/PD profile of berzosertib as a single agent and in combination with carboplatin or carboplatin and paclitaxel in patients with advanced solid tumors. PK data were available from 70 patients who received 1-h intravenous infusions of berzosertib (1) as a single agent once weekly (11 patients, Part A1); (2) as a single agent twice weekly (6 patients, Part A2); (3) on days 2 and 9 every 21 days following carboplatin on day 1 (23 patients, Part B1); (4) on days 2 and 9 every 21 days following carboplatin and paclitaxel on day 1 (15 patients, Part B2); (5) on days 2 and 9 following carboplatin on day 1 every 21 days in patients with advanced solid tumors and lymphoma with defects in the DDR (15 patients, Part C). In Study 002, in all study parts, rich PK sampling (pre-dose, 0.5, 1 h (end of infusion), 1.5, 2, 4, 8, 24, and 48 h after start of infusion) was performed after the first dose of berzosertib. In Part A1, additional sparse samples (pre-dose, 0.5–2 h after the end of infusion) were collected on cycle 1, day 8 and day 15. […]"}, "[3]": {"details": "cited from earlier work"}, "pancreatic cancer cells": {"system": "pancreatic cancer cells", "set-up": "method as in PMID 23222511, PMID 22825331", "details": "pancreatic cancer cells vs normal cells; cited from earlier work"}, "[4]": {"details": "cited from earlier work", "remark": "listed apart in the source"}, "p-Chk1": {"system": "p-Chk1", "set-up": "method as in earlier work", "details": "cited from earlier work"}, "acute myeloid leukemia": {"system": "acute myeloid leukemia", "set-up": "method as in PMID 29789314", "details": "orthotopic mouse model, in combination with gemcitabine; cited from earlier work"}, "[5]": {"system": "pancreatic cancer xenografts", "set-up": "method as in PMID 23222511, PMID 22825331", "details": "after radiation and gemcitabine-based chemoradiation; cited from earlier work"}, "[6]": {"system": "patient-derived non-small cell lung tumor xenografts", "set-up": "method as in PMID 25010037", "details": "multiple patient-derived non-small cell lung tumor xenografts; cited from earlier work"}, "[7]": {"details": "full covariate model, typical patient, intravenous infusion"}}, "note": "Like-named read-outs stand apart in the source and are kept apart here.", "data": [{"molecule": "CNCc1ccc(-c2cc(-c3nc(-c4ccc(S(=O)(=O)C(C)C)cc4)cnc3N)on2)cc1", "note": "[berzosertib, 5-(4-(Isopropylsulfonyl)phenyl)-3-(3-(4-((methylamino)methyl)phenyl)isoxazol-5-yl)pyrazin-2-amine]", "values": [{"measurement": "elimination via metabolism, enzyme", "setting": "CYP3A4", "result": "mainly mediated by CYP3A4"}, {"measurement": "sensitization of cells", "setting": "[1]", "result": "acutely sensitized acute myeloid leukemia cells"}, {"measurement": "Additive residual error", "setting": "[2]; base model", "result": 1.9, "unit": "ng/mL"}, {"measurement": "Central volume V1", "setting": "[2]; base model", "result": 111, "unit": "L"}, {"measurement": "Peripheral volume V2", "setting": "[2]; base model", "result": 861, "unit": "L"}, {"measurement": "Proportional residual error [sd]", "setting": "[2]; base model", "result": 0.22}, {"measurement": "cov (Q, V2)", "setting": "[2]; base model", "result": 0.089}, {"measurement": "cov (V1, Q)", "setting": "[2]; base model", "result": 0.26}, {"measurement": "cov (V1, V2)", "setting": "[2]; base model", "result": 0.093}, {"measurement": "IIV on V1 [var]", "setting": "[2]; base model, variance", "result": 0.38}, {"measurement": "IIV on Q [var]", "setting": "[2]; base model, variance, first line so headed (r14)", "result": 0.24}, {"measurement": "IIV on Q [var]", "setting": "[2]; base model, variance, second line so headed (r16)", "result": 0.071}, {"measurement": "PK interaction with evaluated chemo-combinations", "setting": "[2]; berzosertib with gemcitabine, cisplatin, carboplatin, paclitaxel combinations", "result": "no evidence of a clinically significant PK interaction"}, {"measurement": "V1 lower in female patients than in male patients", "setting": "[2]; female vs male patients", "result": 15.8, "unit": "%"}, {"measurement": "Additive residual error", "setting": "[2]; full covariate model", "result": 1.73, "unit": "ng/mL"}, {"measurement": "Proportional residual error [sd]", "setting": "[2]; full covariate model", "result": 0.22}, {"measurement": "cov (Q, V2)", "setting": "[2]; full covariate model", "result": 0.090}, {"measurement": "cov (V1, Q)", "setting": "[2]; full covariate model", "result": 0.25}, {"measurement": "cov (V1, V2)", "setting": "[2]; full covariate model", "result": 0.081}, {"measurement": "Central volume V1", "setting": "[2]; [7]", "result": 118, "unit": "L"}, {"measurement": "Peripheral volume V2", "setting": "[2]; [7]", "result": 1030, "unit": "L"}, {"measurement": "IIV on Q [var]", "setting": "[2]; full covariate model, variance", "result": 0.24}, {"measurement": "IIV on V1 [var]", "setting": "[2]; full covariate model, variance", "result": 0.32}, {"measurement": "IIV on V2 [var]", "setting": "[2]; full covariate model, variance", "result": 0.047}, {"measurement": "increase for V1", "setting": "[2]; high extreme of albumin", "result": 18, "unit": "%"}, {"measurement": "median increase in CL", "setting": "[2]; high extreme of body weight", "result": 12, "unit": "%"}, {"measurement": "median increase in V1", "setting": "[2]; high extremes of tumor size at baseline", "result": 24, "unit": "%"}, {"measurement": "clearance", "setting": "[2]; intravenous, base model", "result": 933, "unit": "mL/min"}, {"measurement": "clearance", "setting": "[2]; full covariate model, typical patient, intravenous infusion, 240 patients, 18–480 mg/m^2", "result": 1080, "unit": "mL/min"}, {"measurement": "median decrease for V2", "setting": "[2]; low extreme of age", "result": 16.7, "unit": "%"}, {"measurement": "median decrease for V1", "setting": "[2]; low extreme of albumin", "result": 28.6, "unit": "%"}, {"measurement": "decrease in CL", "setting": "[2]; low extreme of body weight", "result": 9, "unit": "%"}, {"measurement": "higher CL in patients with TNBC", "setting": "[2]; patients with TNBC vs female patients with other tumor types", "result": 42, "unit": "%"}, {"measurement": "recommended phase II dose (RP2D)", "setting": "[3]; days 2 and 9 following 75 mg/m^2 cisplatin (day 1)", "result": 140, "unit": "mg/m^2"}, {"measurement": "recommended phase II dose (RP2D)", "setting": "[3]; days 2 and 9 following 1000 mg/m^2 gemcitabine (days 1 and 8)", "result": 210, "unit": "mg/m^2"}, {"measurement": "recommended phase II dose (RP2D)", "setting": "[3]; days 2 and 9 following carboplatin AUC 5 (day 1)", "result": 90, "unit": "mg/m^2"}, {"measurement": "sensitization to radiation and/or gemcitabine", "setting": "pancreatic cancer cells", "result": "selectively sensitized pancreatic cancer cells but not normal cells"}, {"measurement": "PK linearity over the dose range", "setting": "[4]; 18–480 mg/m^2", "result": "linear"}, {"measurement": "renal excretion", "setting": "[4]; Study 001", "result": "5–6%"}, {"measurement": "terminal half-life", "setting": "[4]; patients, intravenous, 18–480 mg/m^2", "result": "approximately 17 h"}, {"measurement": "total plasma concentration needed to reach 50% of maximal inhibition (IC50) of p-Chk1 in humans", "setting": "p-Chk1; estimated from multiple preclinical tumor models with carboplatin, irinotecan, cisplatin or gemcitabine, adjusted for species differences in plasma protein binding", "result": "approximately 110 ng/mL"}, {"measurement": "inhibition of p-Chk1", "setting": "p-Chk1; tumor-bearing mice, in combination with various chemotherapies", "result": "dose-dependent inhibition of p-Chk1"}, {"measurement": "survival", "setting": "acute myeloid leukemia", "result": "increased survival"}, {"measurement": "growth delay of xenografts", "setting": "[5]", "result": "markedly prolonged growth delay"}, {"measurement": "normal cell or tissue toxicity", "setting": "[5]", "result": "without augmenting normal cell or tissue toxicity"}, {"measurement": "efficacy in combination with cisplatin", "setting": "[6]", "result": "dramatically enhanced the efficacy of cisplatin"}]}]}
